Among the data in patent publication US20250177396A1, “POLO-LIKE KINASE 4 (PLK4) INHIBITORS, PHARMACEUTICAL COMPOSITIONS, METHODS OF PREPARATION AND USES THEREOF” (Repare Therapeutics Inc., priority 2022, published 2025) are IC50 values, retold here.

By IC50 is commonly meant the concentration at which inhibition is half-maximal. A lower IC50 goes with greater potency.

The target in the assay is T1, PLK4 (Homo sapiens, UniProt O00444).
T1 construct: expressed in transfected cells; host or cells: HEK293 T cells (ATCC CRL-3216)
T1 sequence (O00444 1-970): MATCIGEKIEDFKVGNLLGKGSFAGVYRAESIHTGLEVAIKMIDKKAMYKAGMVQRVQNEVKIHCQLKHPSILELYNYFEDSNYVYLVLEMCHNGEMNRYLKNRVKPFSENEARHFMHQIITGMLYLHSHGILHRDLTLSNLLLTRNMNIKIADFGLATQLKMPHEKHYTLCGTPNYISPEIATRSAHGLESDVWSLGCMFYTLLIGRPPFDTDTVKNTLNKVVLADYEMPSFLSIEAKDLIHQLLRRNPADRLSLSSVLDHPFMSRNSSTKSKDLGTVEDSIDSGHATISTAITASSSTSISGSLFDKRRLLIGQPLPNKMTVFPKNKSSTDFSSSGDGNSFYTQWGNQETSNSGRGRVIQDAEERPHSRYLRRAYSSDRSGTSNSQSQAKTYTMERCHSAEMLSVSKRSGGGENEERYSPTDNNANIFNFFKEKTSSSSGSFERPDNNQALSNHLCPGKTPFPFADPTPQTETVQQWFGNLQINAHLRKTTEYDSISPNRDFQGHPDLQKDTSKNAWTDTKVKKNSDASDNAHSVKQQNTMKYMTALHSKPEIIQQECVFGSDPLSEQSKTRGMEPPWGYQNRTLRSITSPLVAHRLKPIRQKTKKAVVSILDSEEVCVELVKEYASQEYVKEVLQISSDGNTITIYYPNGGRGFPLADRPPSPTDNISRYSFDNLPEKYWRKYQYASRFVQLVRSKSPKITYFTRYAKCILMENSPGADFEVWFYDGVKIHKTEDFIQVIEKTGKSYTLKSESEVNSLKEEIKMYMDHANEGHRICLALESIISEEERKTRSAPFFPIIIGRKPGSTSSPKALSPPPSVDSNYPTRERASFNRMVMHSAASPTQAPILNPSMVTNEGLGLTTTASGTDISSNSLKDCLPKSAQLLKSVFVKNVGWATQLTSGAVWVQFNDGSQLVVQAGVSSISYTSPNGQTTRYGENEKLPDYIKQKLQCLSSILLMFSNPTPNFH
In words: PLK4 NanoBRET target engagement assay. The class given is binding. Conditions: HEK293 T cells transfected with PLK4 NanoLuc fusion vector; K-5 tracer; 2 hrs incubation. In a few lines: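 HEK293T cells transiently expressing PLK4-NanoLuc, plated at 17000 cells/well with K-5 tracer and compound, incubated 2 h at 37 °C/5% CO2. After substrate/inhibitor mix, 610/450 nm emission ratio ×1000 gave mBRET; IC50 from 4-parameter fit.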
In general terms: Bioluminescence resonance energy transfer reports proximity on the nanometre scale.
`Cc1cc(Nc2nc(N(C)c3c(F)cc(S(C)(=O)=O)cc3F)nc(-c3cn(C(CO)CO)nc3C)c2C2CC2)n[nH]1` [Compound 177] returned an IC50 of 38 nM. In other words, the double-digit nanomolar range.
As for `Cc1cc(Nc2nc(N(C)c3c(F)cc(S(C)(=O)=O)cc3F)nc(-c3cc(CO)n(C)n3)c2C2CC2)n[nH]1` [Compound 178], the figure is 11 nM; as for `Cc1cc(Nc2nc(N(C)c3c(F)cc(S(C)(=O)=O)cc3F)nc(C(N)=O)c2C2CC2)n[nH]1` [Compound 179], 260 nM.
Turning to `Cc1cc(Nc2nc(N(C)c3c(F)cc(S(C)(=O)=O)cc3F)nc(-c3cn(C4COC4)nc3C)c2C2CC2)n[nH]1` [Compound 180], the concentration for half-maximal inhibition (IC50) came out at 4 nM.
The result for `Cc1cc(Nc2nc(N(C)c3c(F)cc(S(C)(=O)=O)cc3F)nc(-c3cnn(C)c3N)c2C2CC2)n[nH]1` [Compound 181] reads 29 nM.
As for `Cc1cc(Nc2nc(N(C)c3c(F)cc(S(C)(=O)=O)cc3F)nc(-c3cnn4c3COCC4)c2C2CC2)n[nH]1` [Compound 182], the figure is 11 nM; as for `Cc1cc(Nc2nc(N(C)c3c(F)cc(S(C)(=O)=O)cc3F)nc(-c3cnc4n3CCC4)c2C2CC2)n[nH]1` [Compound 183], 13 nM; as for `Cc1cc(Nc2nc(N(C)c3c(F)cc(S(C)(=O)=O)cc3F)nc(N3CCN(C)C(=O)C3)c2C2CC2)n[nH]1` [Compound 184], 33 nM.
Molecule `Cc1cc(Nc2nc(N(C)c3c(F)cc(S(C)(=O)=O)cc3F)nc(-c3cn(C4CCOCC4)nc3C)c2C2CC2)n[nH]1` [Compound 185] had an IC50 of 21 nM.
As for `Cc1cc(Nc2nc(N(C)c3c(F)cc(S(C)(=O)=O)cc3F)nc(-c3cnn(C4CS(=O)(=O)C4)c3)c2C2CC2)n[nH]1` [Compound 186], the figure is 17 nM; as for `Cc1cc(Nc2nc(N(C)c3cc(F)c(S(C)(=O)=O)cc3F)nc(-c3cn(C)c(C)n3)c2C2CC2)n[nH]1` [Compound 187], 13 nM.
Molecule `COCCn1cc(-c2nc(N(C)c3c(F)cc(S(C)(=O)=O)cc3F)nc(Nc3cc(C)[nH]n3)c2C2CC2)nc1C` [Compound 188] registered an IC50 of 8 nM.
Molecule `Cc1cc(Nc2nc(Nc3c(F)cc(S(C)(=O)=O)cc3F)nc(-c3cn(C)cn3)c2C2CC2)n[nH]1` [Compound 189] displayed an IC50 of 150 nM.
As for `Cc1cc(Nc2nc(N(C)c3c(F)cc(S(C)(=O)=O)cc3F)nc(-c3cn(CCS(C)(=O)=O)c(C)n3)c2C2CC2)n[nH]1` [Compound 192], the figure is 610 nM.
Regarding `Cc1cc(Nc2nc(N(C)c3c(F)cc(S(C)(=O)=O)cc3F)nc(-c3cnn([C@H]4CC[C@H](O)CC4)c3)c2C2CC2)n[nH]1` [Compound 193], the IC50 stood at 3 nM. Compared with the last molecule, the IC50 is about 200-fold lower.
Consider `Cc1cc(Nc2nc(N(C)c3cc(F)c(S(C)(=O)=O)cc3F)nc(-c3ccn(C(F)F)n3)c2C2CC2)n[nH]1` [Compound 194], for which the IC50 was 63 nM.
The result for `Cc1cc(Nc2nc(N(C)c3cc(F)c(S(C)(=O)=O)cc3F)nc(-c3cn4c(n3)CCC4)c2C2CC2)n[nH]1` [Compound 197] reads 24 nM; that for `Cc1cc(Nc2nc(N(C)c3c(F)cc(S(C)(=O)=O)cc3F)nc(-c3cn(C)nc3C3CC3)c2C2CC2)n[nH]1` [Compound 198], 4 nM.
As for `Cc1cc(Nc2nc(N(C)c3ccc(S(C)(=O)=O)cc3F)nc(-c3cn(C(C)C)cn3)c2C2CC2)n[nH]1` [Compound 199], the figure is 17 nM; as for `Cc1cc(Nc2nc(N(C)c3cc(F)c(S(C)(=O)=O)cc3F)nc(-c3cn(C(C)C)cn3)c2C2CC2)n[nH]1` [Compound 200], 8 nM; as for `Cc1cc(Nc2nc(N(C)c3c(F)cc(S(C)(=O)=O)cc3F)nc(-c3cnn(CCO)c3C)c2C2CC2)n[nH]1` [Compound 201], 7 nM.
`Cc1cc(Nc2nc(N(C)c3c(F)cc(S(C)(=O)=O)cc3F)nc(-c3cn(CCO)nc3C)c2C2CC2)n[nH]1` [Compound 202]: the IC50 came to 6 nM.
For the molecule `Cc1cc(Nc2nc(N(C)c3c(F)cc(S(C)(=O)=O)cc3F)nc(-c3cnn4c3OCCC4)c2C2CC2)n[nH]1` [Compound 203], half-maximal inhibition (IC50) was put at 6 nM.
The result for `Cc1cc(Nc2nc(N(C)c3c(F)cc(S(C)(=O)=O)cc3F)nc(-c3cn(C)c(C#N)n3)c2C2CC2)n[nH]1` [Compound 204] reads 8 nM; that for `Cc1cc(Nc2nc(N(C)c3c(F)cc(S(C)(=O)=O)cc3F)nc(-c3ccn(C)c(=O)c3)c2C2CC2)n[nH]1` [Compound 205], 22 nM.
Molecule `Cc1cc(Nc2nc(N(C)c3c(F)cc(S(C)(=O)=O)cc3F)nc(-c3cnn(CC#N)c3)c2C2CC2)n[nH]1` [Compound 206] had an IC50 of 4 nM.
With `Cc1cc(Nc2nc(N(C)c3cc(F)c(S(C)(=O)=O)cc3F)nc(-c3cn(C4CC4)cn3)c2C2CC2)n[nH]1` [Compound 207], the IC50 is 6 nM.
As for `Cc1cc(Nc2nc(N(C)c3ccc(S(C)(=O)=O)cc3F)nc(-c3cn(C4CC4)cn3)c2C2CC2)n[nH]1` [Compound 208], the figure is 9 nM; as for `Cc1cc(Nc2nc(N(C)c3c(F)cc(S(C)(=O)=O)cc3F)nc(-c3ccn(C4CC4)n3)c2C2CC2)n[nH]1` [Compound 209], 5 nM.
The result for `Cc1cc(Nc2nc(N(C)c3cc(F)c(S(C)(=O)=O)cc3F)nc(-c3cn4c(n3)CCOC4)c2C2CC2)n[nH]1` [Compound 210] reads 8 nM; that for `Cc1cc(Nc2nc(N(C)c3c(F)cc(S(C)(=O)=O)cc3F)nc(-c3cn4c(n3)CNCC4)c2C2CC2)n[nH]1` [Compound 211], 40 nM; that for `CC(=O)N1CCn2cc(-c3nc(N(C)c4c(F)cc(S(C)(=O)=O)cc4F)nc(Nc4cc(C)[nH]n4)c3C3CC3)nc2C1` [Compound 212], 53 nM.
The result for `Cc1cc(Nc2nc(N(C)c3c(F)cc(S(C)(=O)=O)cc3F)nc(-c3cnn(CC(C)(C)O)c3)c2C2CC2)n[nH]1` [Compound 213] reads 6 nM.
Molecule `Cc1cc(Nc2nc(N(C)c3c(F)cc(S(C)(=O)=O)cc3F)nc(-c3ncn(C)n3)c2C2CC2)n[nH]1` [Compound 215] had an IC50 of 69 nM.
As to `Cc1cc(Nc2nc(N(C)c3c(F)cc(S(C)(=O)=O)cc3F)nc(-c3ncnn3C)c2C2CC2)n[nH]1` [Compound 216], the IC50 came to 190 nM.
The result for `Cc1cc(Nc2nc(N(C)c3c(F)cc(S(C)(=O)=O)cc3F)nc(-c3cn(C)c(C(C)O)n3)c2C2CC2)n[nH]1` (centres unmarked) [Compound 217] reads 19 nM.
The result for `Cc1cc(Nc2nc(N(C)c3c(F)cc(S(C)(=O)=O)cc3F)nc(-c3nn(C)cc3CO)c2C2CC2)n[nH]1` [Compound 218] reads 53 nM.
As to `COCCn1cc(-c2nc(N(C)c3ccc(S(C)(=O)=O)cc3F)nc(Nc3cc(C)[nH]n3)c2C2CC2)c(C)n1` [Compound 219], the IC50 came out at 18 nM. This IC50 lies about 2.9-fold lower than the previous one.
`COCCn1ncc(-c2nc(N(C)c3ccc(S(C)(=O)=O)cc3F)nc(Nc3cc(C)[nH]n3)c2C2CC2)c1C` [Compound 220] displayed an IC50 of 38 nM. Compared with the last molecule, the IC50 is about 2.1-fold higher.
As for `COCCn1cc(-c2nc(N(C)c3cc(F)c(S(C)(=O)=O)cc3F)nc(Nc3cc(C)[nH]n3)c2C2CC2)c(C)n1` [Compound 221], the figure is 12 nM; as for `COCCn1ncc(-c2nc(N(C)c3cc(F)c(S(C)(=O)=O)cc3F)nc(Nc3cc(C)[nH]n3)c2C2CC2)c1C` [Compound 222], 15 nM.
As for `Cc1cc(Nc2nc(N(C)c3cc(F)c(S(C)(=O)=O)cc3F)nc(-c3cnn([C@H]4CC[C@H](O)CC4)c3)c2C2CC2)n[nH]1` [Compound 223], the figure is 9 nM; as for `COCCn1cc(-c2nc(N(C)c3cc(F)c(S(C)(=O)=O)cc3F)nc(Nc3cc(C)[nH]n3)c2C2CC2)nc1C` [Compound 224], 13 nM; as for `Cc1cc(Nc2nc(N(C)c3c(F)cc(S(C)(=O)=O)cc3F)nc(-c3cn(CCO)cn3)c2C2CC2)n[nH]1` [Compound 225], 89 nM.
As for `Cc1cc(Nc2nc(N(C)c3c(F)cc(S(C)(=O)=O)cc3F)nc(-c3cn(CCS(C)(=O)=O)nc3C)c2C2CC2)n[nH]1` [Compound 226], the figure is 6 nM; as for `Cc1cc(Nc2nc(N(C)c3c(F)cc(S(C)(=O)=O)cc3F)nc(-c3cnn(CCS(C)(=O)=O)c3C)c2C2CC2)n[nH]1` [Compound 227], 5 nM.
Consider `CN(c1nc(Nc2cc(C3CC3)[nH]n2)c(C2CC2)c(-c2cn(C)cn2)n1)c1c(F)cc(S(C)(=O)=O)cc1F` [Compound 228, 5-cyclopropyl-N^4-(5-cyclopropyl-1H-pyrazol-3-yl)-N^2-(2,6-difluoro-4-(methylsulfonyl)phenyl)-N^2-methyl-6-(1-methyl-1H-imidazol-4-yl)pyrimidine-2,4-diamine], for which half-maximal inhibition (IC50) required 3 nM.
